Assay results taken from US20240269170A1, “Treatment of Inflammatory Conditions or Diseases” (Queen Mary University of London, priority 2021, published 2024).

Tested on: K/B×N serum induced arthritis in mice
Assay: K/B×N serum transfer inflammatory arthritis, MCTR3 given immediately after disease onset
Format: in vivo, mouse
Protocol: FIG. 7: MCTR3 limits joint inflammation. Mice were administered K/B×N serum on days 0 and 2 and then treated with MCTR3 (100 ng/mouse) or Vehicle (PBS+0.1% EtOH) on days 3 and 5. Disease course was evaluated by assessing (A) clinical scores. (B-C) On day 7 joints were collected and disease severity was evaluated using (B) H&E Staining and (C) glycosaminoglycan content was assessed using Safranin-O staining, arrows denote Safranin-O staining in cartilage. Results for A are presented as mean±SEM. Statistical differences for A were evaluated using Two-Way ANOVA. n=4 mice per group. IFP=intrapatellar fat, M=meniscus, TB=Tibia, PF=Pannus formation, Red arrows denote leukocyte infiltration. (D-E) Lipid mediator profiles were determined using LC-MS/MS-based lipid mediator profiling and evaluated using PLS-DA. (D) scores plot with highlighted regions denoting the clusters representing cells from each group and (E) VIP scores for top 15 mediators. Each dot in the score plot represents a separate mouse.
For this purpose, we employed a serum transfer model of inflammatory arthritis, which relies on the activation of the innate immune system replicating the effector phase of rheumatoid arthritis (Korganow et al., 1999, Immunity 10, 451-461). […] We next evaluated whether MCTR3 administration also regulated the joint lipid mediator profile. Using partial least square discriminant analysis, which produces a regression model built using concentrations of lipid mediators differently expressed between the two groups, we found a shift in joint lipid mediator concentrations in mice treated with MCTR3. This shift was linked with a downregulation of pro-inflammatory and nociceptive eicosanoids including PGE2 and PGF2a and an upregulation of pro-resolving and anti-nociceptive mediators such as MaR1 and PDX (FIG. 7D,E).
All samples were extracted using solid-phase extraction columns as in (Gomez et al., 2020, Nat Commun 11, 5420). In brief, samples were placed in ice-cold methanol containing deuterated internal standards (d8-5S-HETE, d4-LTB4, d5-LXA4, d4-PGE2, d5-RvD2, d5-MaR1, d5-MaR2, d5-RvD3, d4-RvE1, d5-17R-RvD1, d5-LTC4, d5-LTD4 and d5-LTE4) representing each chromatographic region of identified LM. Following protein precipitation (−20° C. for a minimum of 45 min), samples were centrifuged and supernatants extracted using an ExtraHera System (Biotage) using solid-phase extraction with Isolute C18 500 mg columns (Biotage). Methyl formate and methanol fractions were collected, brought to dryness and resuspended in phase (methanol/water, 1:1, vol/vol) for injection on a Shimadzu LC-20AD HPLC and a Shimadzu SIL-20AC autoinjector, paired with a QTrap 5500 or QTrap 6500^+ (Sciex). In the analysis of mediators eluted in the methyl formate fraction, an Agilent Poroshell 120 EC-C18 column (100 mm×4.6 mm×2.7 μm) was kept at 50° C. and mediators eluted using a mobile phase consisting of methanol/water/acetic acid of 20:80:0.01 (vol/vol/vol) that was ramped to 50:50:0.01 (vol/vol/vol) over 0.5 min and then to 80:20:0.01 (vol/vol/vol) from 2 min to 11 min, maintained till 14.5 min and then rapidly ramped to 98:2:0.01 (vol/vol/vol) for the next 0.1 min. This was subsequently maintained at 98:2:0.01 (vol/vol/vol) for 5.4 min, and the flow rate was maintained at 0.5 ml/min. QTrap 5500 was operated in negative ionization mode using a multiple reaction monitoring method. […]

[1] = 100 ng/mouse on days 3 and 5, LC-MS/MS, PLS-DA
[2] = 100 ng/mouse on days 3 and 5, joints day 7

## CC/C=C\C/C=C\C[C@H](O)[C@@H](/C=C/C=C/C=C\C/C=C\CCC(=O)O)SC[C@H](N)C(=O)O [MCTR3, 13R-cysteinyl, 14S-hydroxy-4Z, 7Z, 9E, 11E, 13R, 14S, 16Z, 19Z-docosahexaenoic acid]
[1]
  joint pro-inflammatory and nociceptive eicosanoids including PGE2 and PGF2a: downregulation
  joint pro-resolving and anti-nociceptive mediators such as MaR1 and PDX: upregulation
[2]
  leukocyte infiltration (H&E): decrease
  safranin staining (glycosaminoglycan content in the cartilage): increased
100 ng/mouse on days 3 and 5, vs vehicle
  clinical scores: significant reduction
